Measured values reported in patent US20240041042A1, “1-(PYRIDYL)-5-AZINYLPYRAZOLE DERIVATIVES, AND THEIR USE FOR CONTROL OF UNDESIRED PLANT GROWTH” (Bayer Aktiengesellschaft, priority 2020, published 2024).
Where two headings read alike, the source gives them in different places.

How the values were obtained:
Assay type in all cases: in vivo
Setaria viridis (SETVI) [1] = test: Pre-emergence herbicidal action against SETVI
Outline: (§1)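 Seeds sown in pots and covered with soil; WP or EC formulations sprayed onto the soil surface at 600 l/ha water with 0.5% additive, at 320 g/ha or lower. Greenhouse growth for about 3 weeks, then visual scoring as % effect against untreated controls (100% = plants dead).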

Avena fatua (AVEFA) [2] = test: Pre-emergence herbicidal action against AVEFA; conditions: 320 g/ha, visual scoring after about 3 weeks vs untreated controls
Outline: as §1

[3] = test system: Verconica persica (VERPE); test: Post-emergence herbicidal action against VERPE
Outline: (§2)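 Doses of 320 g/ha or lower, suffixes a, b and c marking different dosages, were applied post-emergence at the one-leaf stage in 600 l/ha water with 0.5% additive. Damage was assessed visually after about 3 weeks in the greenhouse.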

[4] = test system: Alopecurus myosuroides (ALOMY); test: Post-emergence herbicidal action against ALOMY; conditions: visual rating about 3 weeks after treatment vs untreated controls (100% = plants have died, 0% = like control plants)
Outline: as §2

[5] = test system: Verconica persica (VERPE); test: Pre-emergence herbicidal action against VERPE; conditions: dosage 320 g/ha
Outline: as §1

Lolium rigidum (LOLRI) [6] = test: Pre-emergence herbicidal action against LOLRI; conditions: dosage 320 g/ha
Outline: as §1

[7] = test system: Echinochloa crus-galli (ECHCG); test: Post-emergence herbicidal action against ECHCG
Outline: as §2

[8] = test system: Echinochloa crus-galli (ECHCG); test: Pre-emergence herbicidal action against ECHCG; conditions: dosage 320 g/ha
Outline: as §1

Zea mays (ZEAMX) [9] = conditions: pre-emergence, crop plant compatibility, in comparison to untreated controls
Excerpt: Seeds of monocotyledonous and dicotyledonous weed plants and crop plants are placed in plastic or organic planting pots and covered with soil. The compounds of the invention, formulated in the form of wettable powders (WP) or as emulsion concentrates (EC), are then applied to the surface of the covering soil as aqueous suspension or emulsion with addition of 0.5% additive at a water application rate equivalent to 600 l/ha. After the treatment, the pots are placed in a greenhouse and kept under good growth conditions for the trial plants. After about 3 weeks, the effect of the preparations is scored visually in comparison with untreated controls as percentages. For example, 100% activity=the plants have died, 0% activity=like control plants.
The observed effects on selected crop plants are reported here in comparison to the untreated controls (values in %). The appendices “a” “b” and “c” give differentiation by dosage used with otherwise the same crop plants tested.

[10] = test system: Polygonum convolvulus (POLCO); test: Pre-emergence herbicidal action against POLCO; conditions: dosage 320 g/ha
Outline: as §1

[11] = test system: Amaranthus retroflexus (AMARE); test: Pre-emergence herbicidal action against AMARE; conditions: visual scoring after about 3 weeks vs untreated controls
Outline: as §1

[12] = test system: Matricaria inodora (MATIN); test: Pre-emergence herbicidal action against MATIN
Outline: as §1

[13] = test system: Alopecurus myosuroides (ALOMY); test: Pre-emergence herbicidal action against ALOMY; conditions: scored visually after about 3 weeks, 100% = plants have died
Outline: as §1

Oryza sativa (ORYSA) = conditions: crop plant compatibility
Outline: (§3)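 Test crops were treated 2 to 3 weeks after sowing, once they reached one leaf, by spraying compound in water with 0.5% additive at 600 l/ha. Visual scoring compared them with untreated controls roughly 3 weeks on, and appendices a, b and c denote different doses.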

Zea mays (ZEAMX) [14] = conditions: for Post-emergence action against ZEAMX in %: crop plant compatibility, 80 g/ha, effect vs untreated controls
Outline: as §3

Setaria viridis (SETVI) [15] = test: Post-emergence herbicidal action against SETVI
Outline: as §2

Viola tricolor (VIOTR) = test: Pre-emergence herbicidal action against VIOTR
Outline: as §1

[16] = test system: Amaranthus retroflexus (AMARE); test: Post-emergence herbicidal action against AMARE
Outline: as §2

[17] = test system: Polygonum convolvulus (POLCO); test: Post-emergence herbicidal action against POLCO; conditions: dosage 320 g/ha
Outline: as §2

[18] = test system: Abutilon theophrasti (ABUTH); test: Post-emergence herbicidal action against ABUTH; conditions: 320 g/ha, visual rating about 3 weeks after treatment vs untreated controls (100% = plants have died, 0% = like control plants)
Outline: as §2

[19] = test system: Pharbitis purpurea (PHBPU); test: Post-emergence herbicidal action against PHBPU; conditions: dosage 320 g/ha
Outline: as §2

[20] = test system: Matricaria inodora (MATIN); test: Post-emergence herbicidal action against MATIN; conditions: dosage 320 g/ha
Outline: as §2

Lolium rigidum (LOLRI) [21] = test: Post-emergence herbicidal action against LOLRI; conditions: dosage 320 g/ha
Outline: as §2

Avena fatua (AVEFA) [22] = test: Post-emergence herbicidal action against AVEFA; conditions: 320 g/ha, visual rating about 3 weeks after treatment
Outline: as §2

[23] = 80 g/ha, visual rating about 3 weeks after treatment vs untreated controls (100% = plants have died, 0% = like control plants)
[24] = 320 g/ha, visual rating about 3 weeks after treatment

In the case of CC(C)N(C)S(=O)(=O)NC(=O)COc1nn(-c2ncccc2F)c(-c2ccc(F)nc2)c1Br [Example I-53], the “Pre-emergence action against SETVI in %” value (Setaria viridis (SETVI) [1]; dosage 80 g/ha) is reported as 90%, the “Pre-emergence action against SETVI in %” value (Setaria viridis (SETVI) [1]; dosage 320 g/ha) is reported as 100% and the “Pre-emergence action against AVEFA in %” value (Avena fatua (AVEFA) [2]) is reported as 100%. The “Post-emergence action against VERPE in %” value ([3]; dosage 80 g/ha) was 80%, the “Post-emergence action against ALOMY in %” value ([4]; 80 g/ha) was 90% and the “Pre-emergence action against VERPE in %” value [5] was 100%. The “Pre-emergence action against LOLRI in %” value (Lolium rigidum (LOLRI) [6]) was 100%, the “Post-emergence action against ECHCG in %” value ([7]; dosage 80 g/ha) was 80% and the “Pre-emergence action against ECHCG in %” value [8] was 80%. The “Pre-emergence action against ZEAMX in %” value (Zea mays (ZEAMX) [9]; 80 g/ha) was 20%, the “Pre-emergence action against POLCO in %” value [10] was 90% and the “Pre-emergence action against AMARE in %” value ([11]; 80 g/ha) was 90%. For the same molecule, the “Pre-emergence action against AMARE in %” value ([11]; 320 g/ha) was 100%, the “Pre-emergence action against MATIN in %” value ([12]; dosage 320 g/ha) was 90% and the “Pre-emergence action against ALOMY” value ([13]; 80 g/ha) was 80%. The “Pre-emergence action against ALOMY” value ([13]; 320 g/ha) was 100%, the “Post-emergence action against ORYSA in %” value (Oryza sativa (ORYSA); 20 g/ha, effect vs untreated controls) was 10% and the “Post-emergence action against ZEAMX in % (crop plant compatibility)” value (Zea mays (ZEAMX) [14]; 20 g/ha, ZEAMX, effect in comparison to untreated controls) was 10%. The “Post-emergence action against SETVI in %” value (Setaria viridis (SETVI) [15]; dosage 80 g/ha) was 80%, the “Pre-emergence action against VIOTR in %” value (Viola tricolor (VIOTR); 320 g/ha, Viola tricolor) was 100% and the “Pre-emergence action against VIOTR in %” value (Viola tricolor (VIOTR); dosage 80 g/ha) was 90%. For the same molecule, the “Post-emergence action against AMARE in %” value [16, 23] was 90%.
In the case of O=C(O)COc1nn(-c2ccccn2)c(-c2ccc(F)nc2)c1F [Example I-373], the “Post-emergence action against POLCO in %” value [17] is reported as 80%, the “Pre-emergence action against SETVI in %” value (Setaria viridis (SETVI) [1]; dosage 320 g/ha) is reported as 80% and the “Post-emergence action against VERPE in %” value ([3]; 320 g/ha, VERPE) is reported as 90%. The “Pre-emergence action against LOLRI in %” value (Lolium rigidum (LOLRI) [6]) was 80%, the “Post-emergence action against ECHCG in %” value ([7]; dosage 320 g/ha) was 90% and the “Pre-emergence action against ECHCG in %” value [8] was 90%. The “Pre-emergence action against ZEAMX in %” value (Zea mays (ZEAMX) [9]; 80 g/ha) was 0%, the “Pre-emergence action against ZEAMX in %” value (Zea mays (ZEAMX) [9]; 320 g/ha) was 0% and the “Pre-emergence action against POLCO in %” value [10] was 90%. For the same molecule, the “Pre-emergence action against AMARE in %” value ([11]; 320 g/ha) was 90%, the “Post-emergence action against ABUTH in %” value [18] was 80% and the “Pre-emergence action against MATIN in %” value ([12]; dosage 320 g/ha) was 90%. The “Pre-emergence action against ALOMY” value ([13]; 320 g/ha) was 90%, the “Post-emergence action against ORYSA in %” value (Oryza sativa (ORYSA); 80 g/ha, effect in comparison to untreated controls) was 0% and the “Post-emergence action against ZEAMX in %” value (Zea mays (ZEAMX) [14]) was 0%. For the same molecule, the “Post-emergence action against PHBPU in %” value [19] was 80%, the “Post-emergence action against SETVI in %” value (Setaria viridis (SETVI) [15]; dosage 320 g/ha) was 90% and the “Post-emergence action against MATIN in %” value [20] was 90%. For the same molecule, the “Post-emergence action against AMARE in %” value [16, 23] was 80% and the “Post-emergence action against AMARE in %” value [16, 24] was 80%.
CCOC(=O)COc1nn(-c2ccccn2)c(-c2ccc(F)nc2)c1F [Example I-305] was tested, and the “Post-emergence action against POLCO in %” value [17] was 80%, the “Pre-emergence action against SETVI in %” value (Setaria viridis (SETVI) [1]; dosage 320 g/ha) was 90% and the “Post-emergence action against VERPE in %” value ([3]; 320 g/ha, VERPE) was 90%. For the same molecule, the “Post-emergence action against ALOMY in %” value ([4]; 320 g/ha) was 100%, the “Post-emergence action against LOLRI in %” value (Lolium rigidum (LOLRI) [21]) was 90% and the “Pre-emergence action against LOLRI in %” value (Lolium rigidum (LOLRI) [6]) was 90%. The “Post-emergence action against ECHCG in %” value ([7]; dosage 80 g/ha) was 90%, the “Post-emergence action against ECHCG in %” value ([7]; dosage 320 g/ha) was 90% and the “Pre-emergence action against ECHCG in %” value [8] was 90%. For the same molecule, the “Pre-emergence action against ZEAMX in %” value (Zea mays (ZEAMX) [9]; 80 g/ha) was 0%, the “Pre-emergence action against AMARE in %” value ([11]; 80 g/ha) was 80% and the “Pre-emergence action against AMARE in %” value ([11]; 320 g/ha) was 90%. For the same molecule, the “Pre-emergence action against MATIN in %” value ([12]; dosage 80 g/ha) was 80%, the “Pre-emergence action against MATIN in %” value ([12]; dosage 320 g/ha) was 90% and the “Pre-emergence action against ALOMY” value ([13]; 320 g/ha) was 90%. The “Post-emergence action against ZEAMX in %” value (Zea mays (ZEAMX) [14]) was 0%, the “Post-emergence action against PHBPU in %” value [19] was 90% and the “Post-emergence action against AVEFA in %” value (Avena fatua (AVEFA) [22]) was 80%. For the same molecule, the “Post-emergence action against SETVI in %” value (Setaria viridis (SETVI) [15]; dosage 320 g/ha) was 90%, the “Post-emergence action against MATIN in %” value [20] was 80% and the “Post-emergence action against AMARE in %” value [16, 23] was 80%. For the same molecule, the “Post-emergence action against AMARE in %” value [16, 24] was 90%.
